# Tests used:
# participants with PTSD = assay: IMPACT-1 open-label study (Part A); assay type: in vivo, human; parameters: reduction in Anxiety Sub-Scale of MADRS: concentration or dose not given beside the values
# Procedure: The purpose of this pilot study is to evaluate the safety, tolerability, and efficacy of methylone in adult participants with PTSD. The study is conducted in two parts. Part A is open-label enrolling up to 15 evaluable participants with PTSD. After completion of Part A, enrollment will begin for Part B, which is double-blind, placebo-controlled and enrolling up to 64 evaluable participants with PTSD.
# Brief Summary: This is a two-part study to assess methylone for the management of the symptoms of PTSD. Part A is an open-label, non-controlled assessment in up to 15 evaluable participants with PTSD to assess early safety and efficacy and to confirm procedures included in the blinded portion (Part B) of the study. After completion of Part A, enrollment for Part B will begin in up to 64 participants. Part B is identical to Part A with the exception of the inclusion of a placebo arm in Part B.
# For each participant in Parts A and B, the study consists of: • Screening Period (Day-28 to Day-4): Informed consent, eligibility assessment, and enrolment of eligible participants. • Baseline/Preparatory Session (Day-3 to Day-1): Baseline assessments, confirmation of eligibility, and a preparatory psychoeducation session leading to enrolment confirmation. • Treatment Period (Day 1 to Day 24): Four weekly dose sessions, with associated remote sessions. The dose sessions last at least 8 hours, or until all effects (physical and psychological) have resolved (whichever is longer). Each dose session is followed by a safety phone call 1 day after dosing and efficacy assessments 2 days after dosing. Each dosing period is video recorded for quality and training purposes. The videos may be reviewed to ensure the Mentor is adhering to the Mentor training. • Follow-Up Period (Day 29 to Day 64): Follow-Up visits for safety and efficacy occur at 1, 2, 3 and 6 weeks post-final study drug administration. In addition, there are Mentor-Led Reflection Sessions 1, 2 and 3 weeks post-final study drug administration. Participants are contacted via telephone on Day 57 (±2 days) for Follow-Up. • Discontinuations: Participants who discontinue prematurely are asked to return for an extra visit to duplicate the 6-week end-of-study (EOS) visit.
# Each dose was given as an initial dose, followed by a second dose 90 minutes later. During the dosing session, participants were accompanied by a trained Mentor who provided non-directive support. After the 4-week treatment period, participants attended follow-up visits at 1, 2, 3, and 6 weeks following the last dose. Safety was assessed via standard measures including adverse events. PTSD symptoms were assessed via Clinician-Administered PTSD Scale for DSM-5 (CAPS-5), depressive symptoms were assessed via Montgomery-Åsberg Depression Rating Scale (MADRS). Anti-anxiety efficacy was evaluated using the Anxiety Sub-Scale of MADRS, namely, questions (Items 3, 4, 5, 6) that address four anxiety items (inner tension, reduced sleep, reduced appetite, concentration difficulties) Changes from baseline were analyzed using a paired t-test p-values.
# Methods: The IMPACT-1 study is a multi-center, two-part clinical trial. Part A has completed and was an open-label evaluation involving 14 participants with PTSD. Eligible participants are adults with severe PTSD (CAPS-5 ≥35) who had failed at least 1 prior treatment (pharmacotherapy and/or psychotherapy) for PTSD. […] Throughout each dosing session, participants were provided non-directive psychological support by a trained mental health practitioner. Following the 4-week treatment period, participants were followed for an additional 6 weeks to evaluate the durability of the therapeutic effect. PTSD symptom improvement was evaluated on the CAPS-5. Functioning was assessed via the 3 domains (school/work, family life, social life) of the Sheehan Disability Scale (SDS). Global improvement was measured by the CGI-I. Safety was assessed by monitoring adverse events, vital signs, and C-SSRS. […]
# 168 GPCRs [1] = molecular target: 168 GPCRs (Homo sapiens, UniProt P32249); assay: β-arrestin GPCR screen (PathHunter/GPCRmax), agonist mode; assay type: cell-based; parameters: host or cells: PathHunter cell lines; details: GPCR EBI2; Agonist mode; 10 uM
# Procedure: (§1) For agonist determination, cells were incubated with sample to induce response. […] Vehicle concentration was 1%.
# 168 GPCRs [2] = molecular target: 168 GPCRs (Homo sapiens, UniProt Q8NFJ6); assay: as above; assay type: cell-based; parameters: host or cells: PathHunter cell lines; details: PROKR2; Agonist; 1 uM
# Procedure: as §1
# C57BL/6J mice = assay: Head-twitch response (HTR) test; assay type: in vivo, mouse; details: i.p., HTR measured for 10 minutes, any dose tested
# Procedure: Head twitch response (HTR) was evaluated using C57BL/6J mice (ages 7-10 weeks). Mice were ear tagged at least three days after arrival to the animal facility and allowed to rest for at least three days before behavioral testing. Small magnets (SuperMagnetMan-N45 magnet 3 mm diameter, 0.5 mm thickness) were glued to ear tags (Stoelting-La Pias Aluminum Ear Tags) at least two days before mice were ear tagged. The experimental setup was adapted from Gonzales-Maeso (de la Fuente Revenga et al., 2019) and Kwan (Jefferson et al., 2022; Savalia et al., 2021), including experimental apparatus and MATLAB code for analysis.
# Doses were randomly assigned, and age-matched controls were injected with vehicle and randomly interspersed with drug conditions. At least three animals per sex were used for each drug dose and condition. If animals were used in multiple HTR experiments, experimental sessions took place at least one week apart. Two animals were run at a time. Immediately after i.p. injection of psychedelic or entactogen drug, animals were placed in separate plastic boxes within a larger chamber (Home Depot-28 in. W×32 in. H x 21.5 in. D), and HTR was measured for 10 minutes. A small lamp was placed in the back of the larger chamber, and a high-speed camera (Basler-Aca 1920-155 μm) was suspended from the ceiling to record video of the animals in the plastic boxes. […]
# [3] = test system: myelin basic protein (MBP) in the amygdala; assay: Immunohistochemistry of myelin basic protein; assay type: in vivo, rat; details: 10 mg/kg IP, single dose, 24 h
# Procedure: Immunohistochemistry: The in-life portion of the study was conducted at WuXi Apptec (Cranbury, NJ). Sectioning and staining of brains took place at Neuroscience Associates (NSA, Knoxville, TN). […] Brains were post-fixed in PFA before shipment to NSA for processing and staining. Hemisected brains were mounted, sectioned and stained using standard protocols with myelin-basic protein primary antibody (MBP SMI-99, 1:5000, Biolegend, San Diego, CA) and anti-mouse biotinylated secondary antibody (BA-2001, Vector Laboratories, Newark, CA). Slides were imaged using a Huron Digital Pathology TissueScope LE120 whole slide scanning system. 20× objective was used with a 0.4 μm/pixel resolution.
# Chain of 168 GPCRs (Homo sapiens, UniProt Q8NFJ6) (Q8NFJ6 whole entry): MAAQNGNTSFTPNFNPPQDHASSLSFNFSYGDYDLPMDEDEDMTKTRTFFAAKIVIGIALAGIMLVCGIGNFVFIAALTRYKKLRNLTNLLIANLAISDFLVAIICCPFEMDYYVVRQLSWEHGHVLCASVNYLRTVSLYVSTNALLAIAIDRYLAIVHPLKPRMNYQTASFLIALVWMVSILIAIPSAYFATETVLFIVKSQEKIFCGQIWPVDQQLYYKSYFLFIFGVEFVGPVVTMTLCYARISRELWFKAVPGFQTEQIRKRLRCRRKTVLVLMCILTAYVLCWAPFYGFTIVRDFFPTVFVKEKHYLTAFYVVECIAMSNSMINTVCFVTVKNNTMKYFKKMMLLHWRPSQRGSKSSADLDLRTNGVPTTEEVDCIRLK
# Chain of 168 GPCRs (Homo sapiens, UniProt P32249) (P32249 whole entry): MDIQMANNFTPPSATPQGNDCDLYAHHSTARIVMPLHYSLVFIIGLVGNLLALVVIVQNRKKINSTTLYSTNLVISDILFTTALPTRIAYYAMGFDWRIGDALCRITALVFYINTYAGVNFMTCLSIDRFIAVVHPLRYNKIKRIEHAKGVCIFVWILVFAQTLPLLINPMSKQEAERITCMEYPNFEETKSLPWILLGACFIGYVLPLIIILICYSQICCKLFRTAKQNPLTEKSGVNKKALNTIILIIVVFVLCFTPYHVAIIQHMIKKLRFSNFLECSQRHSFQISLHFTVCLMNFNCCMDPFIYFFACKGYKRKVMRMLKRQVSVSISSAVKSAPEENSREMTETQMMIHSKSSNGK
compound,measurement,setting,value
"CNC(C)C(=O)c1ccc2c(c1)OCO2 (centres unmarked) [methylone, 3,4-methylenedioxy-N-methylcathinone]",decrease in CAPS-5 score,participants with PTSD; Day 3,8.4 points
same,decrease in MADRS score,participants with PTSD; Day 3,8.2 points
same,reduction in Anxiety Sub-Scale of MADRS,participants with PTSD; Day 3,20%
same,reduction in Anxiety Sub-Scale of MADRS,participants with PTSD; Day 10,43%
same,reduction in Anxiety Sub-Scale of MADRS,participants with PTSD; Day 17,50%
same,reduction in Anxiety Sub-Scale of MADRS,participants with PTSD; Day 24,57%
same,reduction in Anxiety Sub-Scale of MADRS,participants with PTSD; Day 29,56%
same,reduction in Anxiety Sub-Scale of MADRS,participants with PTSD; Day 36,66%
same,reduction in Anxiety Sub-Scale of MADRS,participants with PTSD; Day 43,64%
same,"SDS Family Life score, mean (SD)",participants with PTSD; Day 64,3.1 (3.45)
same,"SDS Mean Overall score, mean (SD)",participants with PTSD; Day 64,3.1 (3.12)
same,"SDS Social Life score, mean (SD)",participants with PTSD; Day 64,3.2 (3.39)
same,"SDS Work/School score, mean (SD)",participants with PTSD; Day 64,3.3 (3.78)
same,reduction in Anxiety Sub-Scale of MADRS,participants with PTSD; Day 64,66%
same,PSQI total score change,participants with PTSD; end of study (6 weeks after the last dose),−4.0 points
same,drug-related SAEs,"participants with PTSD; human, in vivo, oral, 4 weeks",No drug-related SAEs occurred
same,activity at 10 µM,168 GPCRs [1],-0.1%
same,activity at 1 µM,168 GPCRs [2],~0%
same,head-twitch behaviors,C57BL/6J mice,no effect on head-twitch behaviors at any dose tested
same,MBP level in basolateral and central nuclei of the amygdala vs vehicle,[3],significant reduction in MBP
